The target in experiment [1] is Phosphatidylinositol 4,5-bisphosphate 3-kinase catalytic subunit beta isoform (Homo sapiens, UniProt P42338). Kind of experiment: PI 3-Kinase HTRF Assay. The settings on record: 25 °C. For orientation: TR-FRET usually uses a lanthanide donor and a delayed reading to cut background.
Description: (§1) Briefly, the assay is a time resolved FRET assay that indirectly measures PIP3 product formed by the activity of a PI3-K. The kinase reaction is performed in a microtitre plate (e.g., a 384 well microtitre plate). The total reaction volume is approximately 20 ul per well. In the first step, each well receives 2 ul of test compound in 20% dimethylsulphoxide resulting in a 2% DMSO final concentration. Next, approximately 14.5 ul of a kinase/PIP2 mixture (diluted in 1x reaction buffer) is added per well for a final concentration of 0.25-0.3 ug/ml kinase and 10 uM PIP2. The plate is sealed and incubated for 15 minutes at room temperature. To start the reaction, 3.5 ul of ATP (diluted in 1x reaction buffer) is added per well for a final concentration of 10 uM ATP. The plate is sealed and incubated for 1 hour at room temperature. The reaction is stopped by adding 5 ul of Stop Solution per well and then 5 ul of Detection Mix is added per well. The plate is sealed, incubated for 1 hour at room temperature, and then read on an appropriate plate reader.
For experiment [2], the target named is Phosphatidylinositol 4,5-bisphosphate 3-kinase catalytic subunit alpha isoform (Homo sapiens, UniProt P42336). Kind of experiment: PI 3-Kinase HTRF Assay. Particulars: 25 °C.
Chain of Phosphatidylinositol 4,5-bisphosphate 3-kinase catalytic subunit alpha isoform (P42336 whole entry, canonical isoform): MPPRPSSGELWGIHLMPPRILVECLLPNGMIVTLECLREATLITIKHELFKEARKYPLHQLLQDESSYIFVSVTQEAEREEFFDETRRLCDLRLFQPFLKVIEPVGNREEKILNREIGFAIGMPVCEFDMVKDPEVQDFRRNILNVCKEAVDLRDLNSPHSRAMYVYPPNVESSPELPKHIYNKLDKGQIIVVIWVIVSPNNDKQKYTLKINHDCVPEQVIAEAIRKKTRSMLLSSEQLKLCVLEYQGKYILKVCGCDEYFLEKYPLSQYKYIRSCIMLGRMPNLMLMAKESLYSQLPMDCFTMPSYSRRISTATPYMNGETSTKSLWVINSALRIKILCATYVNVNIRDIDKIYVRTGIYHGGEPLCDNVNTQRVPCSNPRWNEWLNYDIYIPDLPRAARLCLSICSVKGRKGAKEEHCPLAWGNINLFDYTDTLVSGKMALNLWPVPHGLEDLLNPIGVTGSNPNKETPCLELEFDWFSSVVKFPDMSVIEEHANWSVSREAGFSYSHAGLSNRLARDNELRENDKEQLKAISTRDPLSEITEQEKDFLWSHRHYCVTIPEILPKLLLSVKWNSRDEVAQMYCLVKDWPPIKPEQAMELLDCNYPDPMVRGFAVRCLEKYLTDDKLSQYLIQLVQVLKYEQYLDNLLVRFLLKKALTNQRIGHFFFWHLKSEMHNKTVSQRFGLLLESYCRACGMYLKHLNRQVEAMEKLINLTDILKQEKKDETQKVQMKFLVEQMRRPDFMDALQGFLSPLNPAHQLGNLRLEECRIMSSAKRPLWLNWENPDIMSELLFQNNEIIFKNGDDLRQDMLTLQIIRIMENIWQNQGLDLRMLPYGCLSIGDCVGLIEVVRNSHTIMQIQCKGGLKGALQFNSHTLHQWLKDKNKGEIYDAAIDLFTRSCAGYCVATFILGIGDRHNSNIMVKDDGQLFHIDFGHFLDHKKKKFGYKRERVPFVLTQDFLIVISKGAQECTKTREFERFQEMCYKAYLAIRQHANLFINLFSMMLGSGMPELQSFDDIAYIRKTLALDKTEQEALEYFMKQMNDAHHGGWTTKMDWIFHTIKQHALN
Description: as §1

Among the data in BindingDB's records for patent US9682141 (Intellikine LLC, 2017) are IC50 values, retold here.

Chain of Phosphatidylinositol 4,5-bisphosphate 3-kinase catalytic subunit beta isoform (P42338 whole entry, canonical isoform): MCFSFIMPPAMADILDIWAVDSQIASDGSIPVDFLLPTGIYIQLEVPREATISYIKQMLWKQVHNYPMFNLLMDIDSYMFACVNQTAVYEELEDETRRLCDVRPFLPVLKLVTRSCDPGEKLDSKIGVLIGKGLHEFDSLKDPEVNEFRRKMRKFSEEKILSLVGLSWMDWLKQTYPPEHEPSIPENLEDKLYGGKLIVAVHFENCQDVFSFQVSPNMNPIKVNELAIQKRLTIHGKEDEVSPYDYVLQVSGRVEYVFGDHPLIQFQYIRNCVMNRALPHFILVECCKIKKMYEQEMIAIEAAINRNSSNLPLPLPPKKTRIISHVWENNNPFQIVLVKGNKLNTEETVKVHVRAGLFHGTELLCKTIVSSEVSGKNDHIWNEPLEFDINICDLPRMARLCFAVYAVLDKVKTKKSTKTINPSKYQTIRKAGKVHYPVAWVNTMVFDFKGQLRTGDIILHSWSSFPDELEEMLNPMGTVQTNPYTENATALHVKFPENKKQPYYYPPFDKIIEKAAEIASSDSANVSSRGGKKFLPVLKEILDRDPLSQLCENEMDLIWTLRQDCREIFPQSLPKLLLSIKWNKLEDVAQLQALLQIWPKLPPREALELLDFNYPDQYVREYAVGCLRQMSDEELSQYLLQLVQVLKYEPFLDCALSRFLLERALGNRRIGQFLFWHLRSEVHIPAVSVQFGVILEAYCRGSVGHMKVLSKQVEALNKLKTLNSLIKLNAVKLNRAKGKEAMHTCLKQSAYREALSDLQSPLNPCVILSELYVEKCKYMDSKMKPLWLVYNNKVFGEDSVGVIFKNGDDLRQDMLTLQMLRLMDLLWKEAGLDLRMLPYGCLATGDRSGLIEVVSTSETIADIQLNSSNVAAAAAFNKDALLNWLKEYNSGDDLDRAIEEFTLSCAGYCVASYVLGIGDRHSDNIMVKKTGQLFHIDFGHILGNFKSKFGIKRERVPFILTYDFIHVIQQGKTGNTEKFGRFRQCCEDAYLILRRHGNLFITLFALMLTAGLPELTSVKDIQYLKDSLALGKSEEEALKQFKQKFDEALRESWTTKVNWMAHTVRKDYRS

As to `Nc1nc2cc(-c3ccc4ncc(-c5ccncc5)n4c3)ccc2o1` [US9682141, 6], in experiment [1], the 50% inhibitory concentration (IC50) (commonly the concentration that gives 50% inhibition) was < 10 µM. With `Nc1nc2cc(-c3ccc4ncn(-c5ccccc5)c4c3)ccc2o1` [US9682141, 11], the half-maximal inhibitory concentration (IC50) was < 0.1 µM in experiment [2] and < 10 µM in experiment [1].
